Here are results for 21 molecules from patent US8859505B2, “Cysteine protease inhibitors” (Medivir UK Ltd, priority 2010, dated 2014).

Some results are limits rather than exact numbers.

Common to all, as to type: biochemical
The target of one assay is T1, human cathepsin S (Homo sapiens, UniProt P25774).
T1 construct: made in house; host or cells: baculovirus expression system
The assay is described as follows: Cathepsin S Ki determination. As to conditions: baculovirus-expressed enzyme, boc-Val-Leu-Lys-AMC substrate, pH 6.5; read-out: Ki Cat. S. On the procedure:
The assay uses baculovirus-expressed human cathepsin S and the boc-Val-Leu-Lys-AMC fluorescent substrate available from Bachem in a 384 well plate format, in which 7 test compounds can be tested in parallel with a positive control comprising a known cathepsin S inhibitor comparator.
280 μL/well of 12.5% DMSO are added to rows B-H of two columns of a 96 deep well polypropylene plate. 70 μL/well of substrate is added to row A. 2×250 μL/well of assay buffer (100 mM Na phosphate, 100 mM NaCl, pH 6.5) is added to row A, mixed, and double diluted down the plate to row H.
100 μL/well of assay buffer is added to columns 2-5 and 7-12 of 4 rows of a 96 well V bottom polypropylene plate. 200 μL/well of assay buffer is added to columns 1 and 6.
2 μl of each 10 mM test compound is added to a separate well on row A, columns 1-10. Add 90 μl assay buffer containing 1 mM DTT and 2 nM cathepsin S to each well of rows B-H and 180 μl to row A. Mix row A using a multichannel pipette and double dilute to row G. Mix row H and read in the fluorescent spectrophotometer. The readings are Prism data fitted to the competitive inhibition equation, setting S=100 μM and KM=100 μM to obtain an estimate of the up to a maximum of 100 μM.
The second test compound is added to column 6 of the top row, the third to column 1 of the second row etc. Add 1 μL of comparator to column 6 of the bottom row. Mix column 1 and double dilute to column 5. Mix column 6 and double dilute to column 10.
Using an 8-channel multistepping pipette set to 5×10 μL, distribute 10 μL/well of substrate to the 384 well assay plate. Distribute the first column of the substrate dilution plate to all columns of the assay plate starting at row A. The tip spacing of the multichannel pipette will correctly skip alternate rows. Distribute the second column to all columns starting at row B.
Using a 12-channel multistepping pipette set to 4×10 μL, distribute 10 μL/well of inhibitor to the 384 well assay plate. Distribute the first row of the inhibitor dilution plate to alternate rows of the assay plate starting at A1. The tip spacing of the multichannel pipette will correctly skip alternate columns. Similarly, distribute the second, third and fourth rows to alternate rows and columns starting at A2, B1 and B2 respectively.
Mix 20 mL assay buffer and 20 μL 1M DTT. Add sufficient cathepsin S to give 2 nM final concentration.
Using the a distributor such as a Multidrop 384, add 30 μL/well to all wells of the assay plate and read in fluorescent spectrophotometer such as an Ascent.
Fluorescent readings, (excitation and emission wavelengths 390 nm and 460 nm respectively, set using bandpass filters) reflecting the extent of enzyme cleavage of the fluorescent substrate, […] the inhibitor, are linear rate fitted for each well.
Fitted rates for all wells for each inhibitor are fitted to the competitive inhibition equation using SigmaPlot 2000 to determine V, Km and Ki values.
(§1) Potential inhibitors are screened using the above assay with variable concentrations of test compound. Reactions were initiated by addition of enzyme to buffered solutions of substrate and inhibitor. Ki values were calculated according to equation 1.
(§2) [formula] where v0 is the velocity of the reaction, V is the maximal velocity, S is the concentration of substrate with Michaelis constant of KM, and I is the concentration of inhibitor.

The target in assay [1] is T2, human recombinant cathepsin K (Homo sapiens, UniProt P43235).
T2 construct: made in house; host or cells: not fixed: E coli, Pichia or Baculovirus systems named as options
T2 sequence (P43235 115-329): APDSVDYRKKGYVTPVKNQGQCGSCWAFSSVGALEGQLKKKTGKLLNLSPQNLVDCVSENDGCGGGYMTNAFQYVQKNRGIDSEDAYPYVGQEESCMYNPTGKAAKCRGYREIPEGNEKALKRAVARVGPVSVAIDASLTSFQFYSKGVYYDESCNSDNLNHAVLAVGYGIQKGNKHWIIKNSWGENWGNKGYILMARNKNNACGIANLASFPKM
Put plainly: Determination of cathepsin K proteolytic catalytic activity (Ki). As to conditions: fluorogenic substrate H-D-Ala-Leu-Lys-AMC; read-out: Ki Cat. K. On the procedure: Convenient assays for cathepsin K are carried out using human recombinant enzyme, such as that described in PDB. • ID BC016058 standard; mRNA; HUM; 1699 BP. • DE Homo sapiens cathepsin K (pycnodysostosis), mRNA (cDNA clone MGC:23107 • RX MEDLINE;. RX PUBMED; 12477932. • DR RZPD; IRALp962G1234. • DR SWISS-PROT; P43235;
The recombinant cathepsin K can be expressed in a variety of commercially available expression systems including E coli, Pichia and Baculovirus systems. The purified enzyme is activated by removal of the prosequence by conventional methods.
Standard assay conditions for the determination of kinetic constants used a fluorogenic peptide substrate, typically H-D-Ala-Leu-Lys-AMC, and were determined in either 100 mM Mes/Tris, pH 7.0 containing 1 mM EDTA and 10 mM 2-mercaptoethanol or 100 mMNa phosphate, imM EDTA, 0.1% PEG4000 pH 6.5 or 100 mM Na acetate, pH 5.5 containing 5 mM EDTA and 20 mM cysteine, in each case optionally with […] as stabiliser. The enzyme concentration used was 5 nM. The stock substrate solution was prepared at 10 mM in DMSO. Screens were carried out at a fixed substrate concentration of 60 μM and detailed kinetic studies with doubling dilutions of substrate from 250 μM. The total DMSO concentration in the assay was kept below 3%. All assays were conducted at ambient temperature. Product fluorescence (excitation at 390 nm, emission at 460 nm) was monitored with a Labsystems Fluoroskan Ascent fluorescent plate reader. Product progress curves were generated over 15 minutes following generation of AMC product.
as §1, §2

The target of the next assay is human cathepsin L (Homo sapiens, UniProt P07711). Put plainly: Cathepsin L Ki. As to conditions: H-D-Val-Leu-Lys-AMC substrate, pH5.5; read-out: Ki Cat. L. On the procedure:
The procedure above with the following amendments is used for the determination of Ki for cathepsin L.
The enzyme is commercially available human cathepsin L (for example Calbiochem). The substrate is H-D-Val-Leu-Lys-AMC available from Bahcem. The assay buffer is 100 mM sodium acetate 1 mM EDTA, pH5.5) The DMSO stock (10 mM in 100% DMSO) is diluted to 10% in assay buffer. Enzyme is prepared at 5 nM concentration in assay buffer plus 1 mM dithiothreitol just before use. 2 μL of 10 mM inhibitor made up in 100% DMSO is dispensed into row A. 10 μL of 50 μM substrate (=1/200 dilution of 10 mM stock in DMSO, diluted in assay buffer).
as §1, §2

human cathepsin L, sequence (P07711 114-333): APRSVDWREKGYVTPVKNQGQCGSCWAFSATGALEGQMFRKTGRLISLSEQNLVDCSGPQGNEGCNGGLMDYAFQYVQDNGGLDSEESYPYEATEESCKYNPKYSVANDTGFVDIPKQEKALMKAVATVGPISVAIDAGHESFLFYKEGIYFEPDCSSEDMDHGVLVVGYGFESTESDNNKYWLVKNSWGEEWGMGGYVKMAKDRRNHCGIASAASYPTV
T1 sequence (P25774 115-331): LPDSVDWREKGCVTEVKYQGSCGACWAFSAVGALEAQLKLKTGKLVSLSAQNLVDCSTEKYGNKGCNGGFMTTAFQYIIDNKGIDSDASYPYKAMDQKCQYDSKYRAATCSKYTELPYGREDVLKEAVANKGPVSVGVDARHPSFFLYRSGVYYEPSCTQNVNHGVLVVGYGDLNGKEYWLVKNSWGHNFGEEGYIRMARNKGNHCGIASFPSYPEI

With `NC(=O)C(=O)C1(NC(=O)[C@H](CC2CCC2)NC(=O)C2CC2(F)F)CCC1` (single isomer, unassigned) [Example A43-1], the Ki is 1.3 nM at human cathepsin S, 280 nM in assay [1] and 4.2 µM at human cathepsin L.
For `NC(=O)C(=O)[C@]1(NC(=O)[C@H](CC2(F)CCCC2)NC(=O)c2cccc(-n3ccnc3)c2)C[C@H](F)C1` [Example A1, N-[1-(1-Aminooxalyl-3-fluoro-cyclobutylcarbamoyl)-2-(1-fluoro-cyclopentyl)-ethyl]-3-imidazol-1-yl-benzamide], the Ki on human cathepsin S was 0.084 nM; in assay [1], 500 nM; on human cathepsin L it was 0.23 µM.
For `CC1(C[C@H](NC(=O)C2CC2)C(=O)NC2(C(=O)C(N)=O)CCC2)CCCC1` [Example A2, Cyclopropanecarboxylic acid [1-(1-aminooxalyl-cyclobutylcarbamoyl)-2-(1-methyl-cyclopentyl)-ethyl]-amide], the Ki on human cathepsin S is 0.3 nM; in assay [1], 630 nM; at human cathepsin L, 1.8 µM.
Regarding `CC1(C[C@H](NC(=O)c2ccc(F)cc2)C(=O)NC2(C(=O)C(N)=O)CCC2)CCCC1` [Example A3], the Ki turned out to be 0.1 nM at human cathepsin S, 140 nM in assay [1] and 0.18 µM on human cathepsin L.
Turning to `CCC(=O)N[C@@H](CC1(C)CCCC1)C(=O)NC1(C(=O)C(N)=O)CCC1` [Example A4], the Ki on human cathepsin S was determined as 4.9 nM; in assay [1] it was 2300 nM; on human cathepsin L it was 12 µM.
Regarding `Cc1ccc(C(=O)N[C@@H](CC2(F)CCCC2)C(=O)NC2(C(=O)C(N)=O)CCC2)cn1` [Example A7], the Ki came to 0.88 nM at human cathepsin S, 650 nM in assay [1] and 0.26 µM at human cathepsin L.
Turning to `NC(=O)C(=O)C1(NC(=O)[C@H](CC2(F)CCCC2)NC(=O)c2ccc(F)cc2F)CCC1` [Example A17], the Ki is 0.67 nM at human cathepsin S, 490 nM in assay [1] and 0.49 µM at human cathepsin L.
As for `CC1(C[C@H](NC(=O)C(C)(C)C(F)(F)F)C(=O)NC2(C(=O)C(N)=O)CCC2)CCCC1` [Example A24], the Ki at human cathepsin S worked out at 1.2 nM; in assay [1], 300 nM; at human cathepsin L, 3 µM.
Turning to `NC(=O)C(=O)C1(NC(=O)[C@H](CC2(F)CCCC2)NC(=O)C2(C(F)(F)F)CC2)CCC1` [Example A25], the Ki came out at 3.6 nM on human cathepsin S, 1300 nM in assay [1] and 14 µM on human cathepsin L.
Consider `NC(=O)C(=O)C1(NC(=O)[C@H](CC2(F)CCCC2)NC(=O)C2(C(F)(F)F)CCC2)CCC1` [Example A28], for which the Ki at human cathepsin S worked out at 31 nM; in assay [1], 15000 nM; at human cathepsin L, 23 µM.
Regarding `CC1(C[C@H](NC(=O)C(C)(C)F)C(=O)NC2(C(=O)C(N)=O)CC(F)(F)C2)CCCC1` [Example A31], the Ki at human cathepsin S stood at 2.3 nM; in assay [1], 990 nM; at human cathepsin L, 11 µM.
On to `NC(=O)C(=O)C1(NC(=O)[C@H](CC2(F)CCCC2)NC(=O)c2ccccn2)CCC1` [Example A34], for which the Ki at human cathepsin S stood at 0.77 nM; in assay [1], 180 nM; at human cathepsin L, 0.71 µM.
For the molecule `NC(=O)C(=O)C1(NC(=O)[C@H](CC2(F)CCCC2)NC(=O)C2(C(F)(F)F)CC2)CC1` [Example A38], the Ki on human cathepsin S was 7.6 nM; in assay [1] it was 4600 nM; on human cathepsin L, greater than 200 µM.
On to `CC(C)(C)C[C@H](NC(=O)OC(C)(C)C)C(=O)N[C@]1(C(=O)C(N)=O)C[C@@H](F)C1` [Example C1, Tert-butyl(S)-1-((1r,3S)-1-(2-amino-2-oxoacetyl)-3-fluorocyclobutylamino)-4,4-dimethyl-1-oxopentan-2-ylcarbamate], for which the Ki on human cathepsin S turned out to be 12 nM; in assay [1], 770 nM; at human cathepsin L it was 11 µM.
On the same counts, the results for `CC(C)(C)OC(=O)NC(CC1(F)CCCC1)C(=O)NC1(C(=O)C(N)=O)CC(F)C1` (stereo not drawn) [Example C3] are 1.3 nM, 440 nM and 1.7 µM.
For `CC1(C[C@H](NC(=O)OC(C)(C)C)C(=O)NC2(C(=O)C(N)=O)CCC2)CCCC1` [Example C4] the same measures were 1.1 nM, 720 nM and 1.7 µM.
On to `CCOC(=O)N[C@@H](CC1(F)CCCC1)C(=O)N[C@]1(C(=O)C(N)=O)C[C@@H](F)C1` [Example C5, [1-(1-Aminooxalyl-3-fluoro-cyclobutylcarbamoyl)-2-(1-fluoro-cyclopentyl)-ethyl]-carbamic acid ethyl ester], for which the Ki on human cathepsin S was 2.8 nM; in assay [1], 1100 nM; at human cathepsin L, 5.3 µM.
On the same counts, the results for `CCOC(=O)NC(CC1(F)CCCC1)C(=O)NC1(C(=O)C(N)=O)CCC1` (stereo not drawn) [Example C6, [1-(1-Aminooxalyl-cyclobutylcarbamoyl)-2-(1-fluorocyclopentyl)-ethyl]-carbamic acid ethyl ester] are 2.4 nM, 960 nM and 3.7 µM.
Consider `CCOC(=O)N[C@@H](CC1(F)CCCC1)C(=O)NC1(C(=O)C(N)=O)CCCC1` [Example C7, (S)-ethyl(1-((1-(2-amino-2-oxoacetyl)cyclopentyl)amino)-3-(1-fluorocyclopentyl)-1-oxopropan-2-yl)carbamate], for which the values for the Ki (at human cathepsin S; in assay [1]; at human cathepsin L) were 6.4 nM, 2500 nM and 21 µM, respectively.
Consider `CC(C)(C)OC(=O)N[C@@H](CC1(F)CCCC1)C(=O)NC1(C(=O)C(N)=O)CC1` [Example C11], for which the Ki at human cathepsin S worked out at 3.7 nM; in assay [1] it was 1200 nM; on human cathepsin L it was 2.6 µM.
On the same counts, the results for `CC1(C[C@H](NC(=O)OC(C)(C)C)C(=O)NC2(C(=O)C(N)=O)CC2)CCCC1` [Example C12] are 2.7 nM, 1900 nM and 3.2 µM.

The Ki is a measure of affinity in units of concentration, obtained from inhibition or displacement.
